Measurements taken from patent publication US20240269139A1, “COMPOUNDS FOR TARGETED PROTEIN DEGRADATION OF KINASES” (DANA-FARBER CANCER INSTITUTE, INC., priority 2020, published 2024).
Values joined by “and” are separate entries in the source; they are usually repeats but may differ in a detail not shown here. Identical values can stand only once. Like-named read-outs stand apart in the source and are kept apart here.

Legend:
Type in all cases: cell-based
[1] = target: T1, protein kinases (human kinome) (Homo sapiens, UniProt O14965)
T1 sequence (O14965 1-403): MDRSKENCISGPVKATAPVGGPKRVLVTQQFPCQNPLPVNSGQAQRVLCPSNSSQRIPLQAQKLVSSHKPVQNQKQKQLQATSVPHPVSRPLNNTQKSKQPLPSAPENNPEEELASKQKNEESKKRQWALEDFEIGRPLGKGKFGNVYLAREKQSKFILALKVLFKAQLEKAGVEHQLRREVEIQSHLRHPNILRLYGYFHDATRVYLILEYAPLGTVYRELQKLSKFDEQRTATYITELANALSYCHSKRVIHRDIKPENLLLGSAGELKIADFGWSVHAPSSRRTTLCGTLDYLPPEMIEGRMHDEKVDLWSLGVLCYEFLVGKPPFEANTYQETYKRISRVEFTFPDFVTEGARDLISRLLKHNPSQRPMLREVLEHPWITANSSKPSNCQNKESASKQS

[2] = target: T2, protein kinases (human kinome) (Homo sapiens, UniProt O75385); details: for logFC: ULK1 (O75385) protein abundance, degrader vs DMSO, down; for logFC ULK1: ULK1 O75385
T2 sequence (O75385 1-1050): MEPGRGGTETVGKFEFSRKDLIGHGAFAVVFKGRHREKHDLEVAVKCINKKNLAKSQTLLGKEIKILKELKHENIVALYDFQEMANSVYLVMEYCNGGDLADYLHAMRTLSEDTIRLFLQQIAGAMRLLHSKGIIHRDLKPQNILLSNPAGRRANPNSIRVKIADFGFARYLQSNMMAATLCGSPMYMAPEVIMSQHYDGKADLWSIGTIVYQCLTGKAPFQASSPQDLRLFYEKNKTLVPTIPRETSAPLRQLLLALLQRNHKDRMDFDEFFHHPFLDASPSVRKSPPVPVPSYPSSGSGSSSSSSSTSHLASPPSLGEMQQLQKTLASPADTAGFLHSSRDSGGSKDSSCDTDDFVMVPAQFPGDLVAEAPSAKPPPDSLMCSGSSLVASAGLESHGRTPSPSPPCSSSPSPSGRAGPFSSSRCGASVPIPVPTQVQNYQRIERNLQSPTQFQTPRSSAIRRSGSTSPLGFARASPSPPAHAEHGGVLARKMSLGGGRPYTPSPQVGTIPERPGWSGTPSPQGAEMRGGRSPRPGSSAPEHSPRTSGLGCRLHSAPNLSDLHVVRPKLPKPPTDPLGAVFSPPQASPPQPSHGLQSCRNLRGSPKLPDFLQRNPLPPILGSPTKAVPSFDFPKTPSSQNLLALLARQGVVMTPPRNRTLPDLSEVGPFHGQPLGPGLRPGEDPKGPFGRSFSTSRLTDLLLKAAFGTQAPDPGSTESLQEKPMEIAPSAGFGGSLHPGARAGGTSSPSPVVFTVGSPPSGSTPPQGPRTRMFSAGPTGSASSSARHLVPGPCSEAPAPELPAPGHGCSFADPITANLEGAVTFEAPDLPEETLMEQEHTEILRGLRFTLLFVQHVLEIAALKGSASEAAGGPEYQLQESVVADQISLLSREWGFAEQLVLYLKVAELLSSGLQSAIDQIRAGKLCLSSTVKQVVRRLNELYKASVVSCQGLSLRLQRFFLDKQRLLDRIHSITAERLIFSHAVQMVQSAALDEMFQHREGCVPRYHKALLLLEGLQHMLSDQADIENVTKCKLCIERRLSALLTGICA

[3] = target: protein kinases (human kinome) (Homo sapiens, UniProt P11802)
protein kinases (human kinome) (Homo sapiens, UniProt P11802), sequence (P11802 whole entry): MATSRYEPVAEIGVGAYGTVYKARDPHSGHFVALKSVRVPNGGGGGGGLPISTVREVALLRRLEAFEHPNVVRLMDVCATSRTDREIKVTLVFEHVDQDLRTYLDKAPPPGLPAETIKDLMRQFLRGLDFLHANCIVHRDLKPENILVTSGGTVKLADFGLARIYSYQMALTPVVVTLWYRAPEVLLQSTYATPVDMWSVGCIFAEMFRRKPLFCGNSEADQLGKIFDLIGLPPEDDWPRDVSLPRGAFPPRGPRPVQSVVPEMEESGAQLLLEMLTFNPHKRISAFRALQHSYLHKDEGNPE

[4] = target: protein kinases (human kinome) (Homo sapiens, UniProt P53671); details: for logFC LIMK2: LIMK2 (P53671), down; for logFC of LIMK2: LIMK2 P53671
protein kinases (human kinome) (Homo sapiens, UniProt P53671), sequence (P53671 whole entry): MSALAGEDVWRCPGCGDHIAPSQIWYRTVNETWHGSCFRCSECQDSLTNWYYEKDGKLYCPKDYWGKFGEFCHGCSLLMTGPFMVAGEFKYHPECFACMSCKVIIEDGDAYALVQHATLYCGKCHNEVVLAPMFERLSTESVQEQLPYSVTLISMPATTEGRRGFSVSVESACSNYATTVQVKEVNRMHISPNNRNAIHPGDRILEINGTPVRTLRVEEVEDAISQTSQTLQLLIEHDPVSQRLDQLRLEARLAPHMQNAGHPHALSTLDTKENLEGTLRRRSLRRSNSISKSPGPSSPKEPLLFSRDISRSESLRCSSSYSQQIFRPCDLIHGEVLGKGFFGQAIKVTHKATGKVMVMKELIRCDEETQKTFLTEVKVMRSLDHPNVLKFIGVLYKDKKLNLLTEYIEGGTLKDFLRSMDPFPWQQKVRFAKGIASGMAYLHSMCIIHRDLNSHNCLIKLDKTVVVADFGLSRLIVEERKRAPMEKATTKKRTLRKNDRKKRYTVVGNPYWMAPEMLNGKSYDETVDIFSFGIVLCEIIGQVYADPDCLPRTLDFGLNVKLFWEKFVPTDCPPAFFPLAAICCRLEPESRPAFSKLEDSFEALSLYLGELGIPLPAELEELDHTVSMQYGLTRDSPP

[5] = target: protein kinases (human kinome) (Homo sapiens, UniProt Q9H0K1); details: for logFC of SIK2: Accession Q9H0K1; for logFC SIK2 (Q9H0K1): direction of change down
protein kinases (human kinome) (Homo sapiens, UniProt Q9H0K1), sequence (Q9H0K1 whole entry): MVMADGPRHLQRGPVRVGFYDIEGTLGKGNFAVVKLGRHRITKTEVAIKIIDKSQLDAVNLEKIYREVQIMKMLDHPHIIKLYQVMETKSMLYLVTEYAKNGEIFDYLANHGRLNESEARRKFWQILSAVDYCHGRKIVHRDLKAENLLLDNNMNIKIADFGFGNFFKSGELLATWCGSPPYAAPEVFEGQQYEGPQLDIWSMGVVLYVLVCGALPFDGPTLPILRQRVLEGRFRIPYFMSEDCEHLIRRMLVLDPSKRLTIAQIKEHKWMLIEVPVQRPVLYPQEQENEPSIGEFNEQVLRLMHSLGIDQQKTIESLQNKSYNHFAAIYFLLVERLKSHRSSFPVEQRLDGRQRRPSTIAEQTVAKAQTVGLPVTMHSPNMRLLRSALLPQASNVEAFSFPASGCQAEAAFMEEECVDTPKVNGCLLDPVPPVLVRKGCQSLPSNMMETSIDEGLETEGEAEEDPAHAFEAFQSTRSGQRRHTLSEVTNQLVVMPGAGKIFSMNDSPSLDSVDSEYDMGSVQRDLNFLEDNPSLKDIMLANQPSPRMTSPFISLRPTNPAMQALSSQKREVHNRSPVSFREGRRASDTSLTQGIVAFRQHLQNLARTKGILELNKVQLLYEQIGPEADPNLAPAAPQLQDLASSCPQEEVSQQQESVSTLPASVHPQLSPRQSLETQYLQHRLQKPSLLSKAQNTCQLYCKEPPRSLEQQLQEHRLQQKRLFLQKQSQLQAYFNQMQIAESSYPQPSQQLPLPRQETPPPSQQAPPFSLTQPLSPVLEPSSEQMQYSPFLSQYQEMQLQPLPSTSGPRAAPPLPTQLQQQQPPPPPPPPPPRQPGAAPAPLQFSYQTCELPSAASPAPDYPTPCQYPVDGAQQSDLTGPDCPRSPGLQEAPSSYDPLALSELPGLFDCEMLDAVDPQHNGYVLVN

CC(C)S(=O)(=O)c1ccccc1Nc1nc(Nc2ccc(N3CCN(CCOCCNC(=O)CNc4cccc5c4C(=O)N(C4CCC(=O)NC4=O)C5=O)CC3)cc2)ncc1Cl (stereo not shown) [SK.3.91]
logFC AURKA (O14965) ([1]; Experiment wp160, 2 hr): −0.8456
logFC AURKA (O14965) ([1]; Experiment wp172): −2.048
logFC AURKA (O14965) ([1]; experiment wp016): −1.908
logFC AURKA (O14965) ([1]; experiment wp016, 1 uM): −3.024
logFC AURKA (O14965) ([1]; experiment wp103): −1.587
logFC AURKA (O14965) ([1]; experiment wp105): −1.837
logFC AURKA (O14965) ([1]; experiment wp107): −3.069
logFC AURKA (O14965) ([1]; experiment wp114): −1.228
logFC AURKA (O14965) ([1]; experiment wp133, 1 hr): −1.329
logFC AURKA (O14965) ([1]; experiment wp133, 2 hr): −2.092
logFC AURKA (O14965) ([1]; experiment wp133, 4 hr): −3.745
logFC AURKA (O14965) ([1]; experiment wp160, 1 hr): −0.547
logFC AURKA (O14965) ([1]; experiment wp160, 4 hr): −1.391
logFC ([2]; 1 hr): −1.472 and −1.466
logFC ([2]; 2 hr): −2.779 and −2.583
logFC ULK1 ([2]; experiment wp103): −1.332
logFC ULK1 ([2]; experiment wp105): −1.712
logFC ULK1 ([2]; experiment wp107): −1.162
logFC ULK1 ([2]; experiment wp133, 1 hr): −1.472
logFC ULK1 ([2]; experiment wp133, 2 hr): −2.779
logFC ULK1 ([2]; experiment wp133, 4 hr): −3.572
logFC ULK1 ([2]; experiment wp160, 1 hr): −1.466
logFC ULK1 ([2]; experiment wp160, 2 hr): −2.583
logFC ULK1 ([2]; experiment wp160, 4 hr): −3.085
logFC CDK4 (P11802) ([3]; Experiment wp160, 2 hr): −0.9104
logFC CDK4 (P11802) ([3]; experiment wp016): −1.161
logFC CDK4 (P11802) ([3]; experiment wp016, 1 uM): −1.429
logFC CDK4 (P11802) ([3]; experiment wp103): −1.029
logFC CDK4 (P11802) ([3]; experiment wp105): −0.7995
logFC CDK4 (P11802) ([3]; experiment wp107): −1.272
logFC CDK4 (P11802) ([3]; experiment wp114): −0.5605
logFC CDK4 (P11802) ([3]; experiment wp133, 2 hr): −0.7484
logFC CDK4 (P11802) ([3]; experiment wp133, 4 hr): −1.292
logFC CDK4 (P11802) ([3]; experiment wp160, 1 hr): −0.4329
logFC CDK4 (P11802) ([3]; experiment wp160, 4 hr): −1.353
logFC LIMK2 ([4]; experiment wp016, 1 uM): −1.441
logFC LIMK2 ([4]; experiment wp016): −1.061
logFC LIMK2 ([4]; experiment wp103): −1.431
logFC LIMK2 ([4]; experiment wp107): −1.878
logFC LIMK2 ([4]; experiment wp114): −0.8414
logFC LIMK2 ([4]; experiment wp133, 2 hr): −0.7575
logFC LIMK2 ([4]; experiment wp133, 4 hr): −1.342
logFC LIMK2 ([4]; experiment wp172): −0.8984
logFC of LIMK2 ([4]; experiment wp016): −1.061
logFC of LIMK2 ([4]; experiment wp016, 1 uM): −1.441
logFC of LIMK2 ([4]; experiment wp103): −1.431
logFC of LIMK2 ([4]; experiment wp107): −1.878
logFC of LIMK2 ([4]; experiment wp114): −0.8414
logFC of LIMK2 ([4]; experiment wp133, 2 hr): −0.7575
logFC of LIMK2 ([4]; experiment wp133, 4 hr): −1.342
logFC of LIMK2 ([4]; experiment wp172): −0.8984
logFC of SIK2 ([5]; experiment wp105): −0.5386
logFC of SIK2 ([5]; experiment wp107): −1.568
logFC of SIK2 ([5]; experiment wp114): −0.5757
logFC of SIK2 ([5]; experiment wp133, 2 hr): −0.4938
logFC of SIK2 ([5]; experiment wp133, 4 hr): −1.035
logFC of SIK2 ([5]; experiment wp160, 2 hr): −0.5413
logFC of SIK2 ([5]; experiment wp160, 4 hr): −0.8364
logFC SIK2 (Q9H0K1) ([5]; Experiment wp105): −0.5386
logFC SIK2 (Q9H0K1) ([5]; Experiment wp114): −0.5757
logFC SIK2 (Q9H0K1) ([5]; experiment wp107): −1.568
logFC SIK2 (Q9H0K1) ([5]; experiment wp133, 2 hr): −0.4938
logFC SIK2 (Q9H0K1) ([5]; experiment wp133, 4 hr): −1.035
logFC SIK2 (Q9H0K1) ([5]; experiment wp160, 2 hr): −0.5413
logFC SIK2 (Q9H0K1) ([5]; experiment wp160, 4 hr): −0.8364

Cc1ccc(NC(=O)c2cccc(C(F)(F)F)c2)cc1N1Cc2cnc(Nc3ccc(N4CCN(Cc5cn(CCCCCOc6cccc7c6C(=O)N(C6CCC(=O)NC6=O)C7=O)nn5)CC4)nc3)nc2N(C)C1=O (stereo not shown) [DB0646, N-(3-(7-((6-(4-((1-(5-((2-(2,6-Dioxopiperidin-3-yl)-1,3-dioxoisoindolin-4-yl)oxy)pentyl)-1H-1,2,3-triazol-4-yl)methyl)piperazin-1-v)pyridin-3-yl)amino)-1-methyl-2-oxo-1,4-dihydropyrimido[4,5-d]pyrimidin-3(2H)-yl)-4-methylphenyl)-3-(trifluoromethyl)benzamide]
logFC AURKA (O14965) ([1]; experiment wp045): −0.3242
logFC AURKA (O14965) ([1]; experiment wp160, 4 hr): −0.4478
logFC ([2]; 4 hr): −0.3412
logFC ([2]; 8 hr): −0.3989
logFC ULK1 ([2]; experiment wp160, 4 hr): −0.3412
logFC ULK1 ([2]; experiment wp160, 8 hr): −0.3989
logFC CDK4 (P11802) ([3]; experiment wp045): −0.9012
logFC CDK4 (P11802) ([3]; experiment wp103): −0.5015
logFC CDK4 (P11802) ([3]; experiment wp107): −0.5565
logFC CDK4 (P11802) ([3]; experiment wp117): −0.6673
logFC CDK4 (P11802) ([3]; experiment wp152): −0.736
logFC CDK4 (P11802) ([3]; experiment wp160, 4 hr): −0.7263
logFC CDK4 (P11802) ([3]; experiment wp160, 8 hr): −1.114
logFC LIMK2 ([4]; experiment wp045): −1.648
logFC LIMK2 ([4]; experiment wp103): −1.569
logFC LIMK2 ([4]; experiment wp107): −1.738
logFC LIMK2 ([4]; experiment wp117): −1.565
logFC LIMK2 ([4]; experiment wp152): −1.565
logFC LIMK2 ([4]; experiment wp172): −1.095
logFC of LIMK2 ([4]; experiment wp045): −1.648
logFC of LIMK2 ([4]; experiment wp103): −1.569
logFC of LIMK2 ([4]; experiment wp107): −1.738
logFC of LIMK2 ([4]; experiment wp117): −1.565
logFC of LIMK2 ([4]; experiment wp152): −1.565
logFC of LIMK2 ([4]; experiment wp172): −1.095
logFC of SIK2 ([5]; experiment wp045): −0.638
logFC of SIK2 ([5]; experiment wp107): −0.5933
logFC of SIK2 ([5]; experiment wp114): −0.4347
logFC of SIK2 ([5]; experiment wp117): −0.4315
logFC of SIK2 ([5]; experiment wp160, 4 hr): −0.5421
logFC of SIK2 ([5]; experiment wp160, 8 hr): −0.5707
logFC SIK2 (Q9H0K1) ([5]; Experiment wp114): −0.4347
logFC SIK2 ([5]; SIK2 (Q9H0K1), experiment wp045, down): −0.638
logFC SIK2 (Q9H0K1) ([5]; experiment wp107): −0.5933
logFC SIK2 (Q9H0K1) ([5]; experiment wp117): −0.4315
logFC SIK2 (Q9H0K1) ([5]; experiment wp160, 4 hr): −0.5421
logFC SIK2 (Q9H0K1) ([5]; experiment wp160, 8 hr): −0.5707

CC(C)S(=O)(=O)c1ccccc1Nc1nc(Nc2ccc(N3CCN(CCOCCOCCNC(=O)CNc4cccc5c4C(=O)N(C4CCC(=O)NC4=O)C5=O)CC3)cc2)ncc1Cl (stereo not shown) [TL12.186]
logFC AURKA (O14965) ([1]; experiment wp016): −1.758
logFC AURKA (O14965) ([1]; experiment wp131): −3.193
logFC AURKA (O14965) ([1]; experiment wp137): −2.642
logFC ULK1 ([2]; experiment wp131): −3.01
logFC ULK1 ([2]; experiment wp137): −2.237
logFC CDK4 (P11802) ([3]; experiment wp016): −0.9166
logFC CDK4 (P11802) ([3]; experiment wp131): −1.186
logFC CDK4 (P11802) ([3]; experiment wp137): −1.173
logFC LIMK2 ([4]; experiment wp016): −0.7395
logFC LIMK2 ([4]; experiment wp131): −1.323
logFC LIMK2 ([4]; experiment wp137): −1.179
logFC of LIMK2 ([4]; experiment wp016): −0.7395
logFC of LIMK2 ([4]; experiment wp131): −1.323
logFC of LIMK2 ([4]; experiment wp137): −1.179
logFC of SIK2 ([5]; experiment wp131): −1.317
logFC SIK2 (Q9H0K1) ([5]; experiment wp131): −1.317
